What was measured:
A. fulgidus DsrAB = biological target: T1, A. fulgidus DsrAB (Archaeoglobus fulgidus, UniProt Q59109+Q59110); test: closed-system in vitro sulfite reduction; sulfite loss and product accumulation (fuchsin assay, cyanolysis); assay type: biochemical; conditions: 15 mM initial sulfite; 65 °C; pH 7.1; H2 / [NiFe] hydrogenase / methyl viologen as electron donor system
T1 construct: gene dsrA; native, purified from A. fulgidus cells; heterodimeric DsrAB with siroheme; free of DsrC

D. vulgaris DsrAB = biological target: T2, D. vulgaris DsrAB (Nitratidesulfovibrio vulgaris, UniProt P45574+P45575); test: sulfite loss over […] h by HPLC of monobromobimane derivatives; Michaelis-Menten fit; assay type: biochemical; conditions: H2 / [NiFe] hydrogenase / methyl viologen as electron donor system; 50 mM phosphate pH 7.1; anoxic; 20 or 31 °C (fractionation conditions)
T2 construct: gene dsvA; native, purified from D. vulgaris cells (Q-Sepharose); heterodimeric DsrAB with siroheme (desulfoviridin)
T2 sequence (P45574 2-437): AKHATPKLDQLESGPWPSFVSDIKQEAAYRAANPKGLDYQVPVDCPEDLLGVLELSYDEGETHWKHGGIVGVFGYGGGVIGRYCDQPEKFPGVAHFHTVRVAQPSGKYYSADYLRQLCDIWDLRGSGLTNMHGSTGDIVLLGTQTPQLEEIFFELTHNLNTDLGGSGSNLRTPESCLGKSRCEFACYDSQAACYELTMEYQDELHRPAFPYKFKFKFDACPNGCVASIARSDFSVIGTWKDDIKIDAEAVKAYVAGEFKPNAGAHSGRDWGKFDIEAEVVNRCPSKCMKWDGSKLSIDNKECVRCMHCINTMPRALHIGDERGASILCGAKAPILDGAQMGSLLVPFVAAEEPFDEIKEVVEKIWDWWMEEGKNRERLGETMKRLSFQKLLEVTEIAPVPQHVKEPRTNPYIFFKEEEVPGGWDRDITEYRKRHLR
T2 sequence (P45575 2-381): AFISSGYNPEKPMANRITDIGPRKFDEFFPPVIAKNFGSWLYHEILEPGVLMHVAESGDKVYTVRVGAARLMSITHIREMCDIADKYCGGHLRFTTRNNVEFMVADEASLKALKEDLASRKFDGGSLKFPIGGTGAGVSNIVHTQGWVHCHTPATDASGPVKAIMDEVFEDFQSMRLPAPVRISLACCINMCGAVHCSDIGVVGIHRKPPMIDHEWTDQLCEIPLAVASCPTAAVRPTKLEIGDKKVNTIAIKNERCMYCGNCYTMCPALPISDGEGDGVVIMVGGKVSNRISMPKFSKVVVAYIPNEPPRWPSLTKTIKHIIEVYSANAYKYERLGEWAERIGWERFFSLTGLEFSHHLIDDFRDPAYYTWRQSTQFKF

T1 sequence (Q59109 2-418): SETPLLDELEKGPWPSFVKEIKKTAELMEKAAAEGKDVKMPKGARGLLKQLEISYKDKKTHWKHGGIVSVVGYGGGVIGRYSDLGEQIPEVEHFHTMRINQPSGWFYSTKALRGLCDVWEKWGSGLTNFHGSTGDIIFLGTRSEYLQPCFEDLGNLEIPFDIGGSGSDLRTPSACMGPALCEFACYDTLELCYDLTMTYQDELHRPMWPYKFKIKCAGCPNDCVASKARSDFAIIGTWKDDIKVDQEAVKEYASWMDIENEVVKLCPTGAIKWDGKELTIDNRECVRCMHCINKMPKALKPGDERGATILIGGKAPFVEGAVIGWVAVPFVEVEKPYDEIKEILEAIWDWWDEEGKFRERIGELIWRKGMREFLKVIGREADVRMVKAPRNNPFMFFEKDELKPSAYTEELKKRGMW
T1 sequence (Q59110 whole entry): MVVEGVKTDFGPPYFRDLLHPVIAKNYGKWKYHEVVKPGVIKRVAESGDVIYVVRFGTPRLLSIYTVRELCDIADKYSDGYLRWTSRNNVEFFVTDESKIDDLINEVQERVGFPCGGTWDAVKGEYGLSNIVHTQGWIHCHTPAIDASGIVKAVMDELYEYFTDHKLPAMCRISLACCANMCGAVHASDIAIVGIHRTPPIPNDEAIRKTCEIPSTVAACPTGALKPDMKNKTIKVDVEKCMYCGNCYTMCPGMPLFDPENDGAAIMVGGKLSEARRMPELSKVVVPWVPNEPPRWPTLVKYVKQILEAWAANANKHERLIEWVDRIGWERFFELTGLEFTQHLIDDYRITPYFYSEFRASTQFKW

Structure (SMILES): O=S(O)O [sulfite]
- closed-system in vitro sulfite reduction; sulfite loss and product accumulation (A. fulgidus DsrAB): showed consistent loss of sulfite and accumulation of products between replicates
- Km (D. vulgaris DsrAB): solved for experimental Km and Vmax under our conditions

Source: PMC4690157, “Sulfur Isotope Effects of Dissimilatory Sulfite Reductase” (Frontiers in Microbiology, 2015)
